The results in this text go back to article PMC6929706, “In vivo alpha-V beta-3 integrin expression in human aortic atherosclerosis” (Heart, 2019).

In series [1] the target is aortic atheroma (αvβ3 integrin) (Homo sapiens, UniProt P05106+P06756).
Description: (§1) All patients in the imaging cohort underwent PET-CT imaging of the thorax with a hybrid scanner (Biograph mCT, Siemens Medical Systems, Erlangen, Germany) at the Clinical Research Imaging Centre, University of Edinburgh. Subjects were administered a target dose of 230 MBq 18F-fluciclatide. An attenuation correction CT scan (non-enhanced 120 kV and 50 mA, 3 mm slices) was performed prior to PET acquisition. To define tracer pharmacodynamics and the optimum timing of scanning, dynamic PET imaging of the thorax was performed in the initial 20 patients in three-dimensional (3-D) mode using a single bed position for 70 min.
Kinetic analysis was performed on the dynamic PET studies to investigate the pharmacodynamics of 18F-fluciclatide uptake within atheroma. […] In all patients, static electrocardiogram-gated PET images were reconstructed in diastole (40–70 min postinjection, 50%–75% of the R-R interval, Ultra-HD, 2 iterations, 21 subsets, zoom ×2, 200 pixels). Images were analysed by experienced observers blinded to the demographic data (WJ, AV) using an OsiriX workstation (OsiriX V.6.0 64-bit; OsiriX Imaging Software, Geneva, Switzerland). PET images were fused with the attenuation correction CT, and regions of interest drawn around the thoracic aorta on serial axial slices just beyond the discernible adventitial border. Aortic uptake was assessed in three regions: the ascending thoracic aorta (from the level of mid-right pulmonary artery up to the last slice where the aorta maintained its circular cross-sectional appearance), the descending thoracic aorta (the region extending from the tip of the diaphragm up to the last circular slice) and the aortic arch (the region of the aorta connecting the ascending and descending aorta). Within these regions, mean and maximum tracer activities were measured using standard uptake values (SUV; the decay corrected tissue concentration of the tracer divided by the injected dose per body weight, kBq/mL) and corrected for mean radiotracer blood pool activity to provide a mean of the TBRmax (mean TBRmax).[5 19 20] […]
The next series deals with T1, αvβ3 integrin receptors (Homo sapiens, UniProt P05106+P06756).
T1 construct: from tissue; host or cells: human carotid endarterectomy specimens (frozen sections)
Description: 18F-fluciclatide autoradiography of carotid endarterectomy sections. The class given is binding. The method, then: Carotid endarterectomy specimens (online supplementary data) were fresh frozen and sectioned in cryosection medium. Both atheromatous and non-atheromatous segments were fixed, stained with H&E and examined by immunohistochemistry for smooth muscle actin, CD31, CD68 and αvβ3 integrin receptor expression before digital image capture (Axioscan .Z1, Zeiss, UK). Image analysis was performed on ImageJ32 software (National Institutes of Health, Bethesda, Maryland, USA). Staining was expressed as a percentage of the total plaque area and with an object size set threshold applied at 20×10 pixels, to limit counting to cell-sized objects. The density of cell staining in the endarterectomy tissue was expressed as cells per mm^2.[18]
Autoradiography was performed to identify the precise localisation of 18F-fluciclatide binding in atherosclerotic tissue. Carotid sections were bathed in a solution of 18F-fluciclatide (1 kBq/mL) for 60 min and rinsed with phosphate buffer solution. To rule out non-specific radiotracer uptake, an un-labelled highly concentrated solution of fluciclatide was added to bind competitively with the αvβ3 integrin receptors. 18F-Fluciclatide binding was imaged using a FujiFilm FLA-5100 Fluorescent Image Analyser (Raytek Scientific, Sheffield, UK). […]
antibody, clone LM609 (Millipore) for 30 min at room temperature. After washing, the sections were incubated with Envision Flex (DAKO, K5007) for 30 min at room temperature, followed by incubation with diaminobenzamine (Sigma) for 10 min. The slides were finally counterstained with hematoxylin and digitally imaged (Axioscan.Z1, Zeiss, UK).
Clinical PET systems have limited resolution. To gain more detailed information about the precise localization of 18F-fluciclatide binding in atherosclerotic tissue, we undertook autoradiography. The 20 μm frozen sections adjacent to those used for immunohistochemical analysis were warmed to room-temperature and bathed in a solution of 18F-fluciclatide at a concentration close to in vivo imaging concentrations (1 kBq/mL) for 60 minutes and then rinsed with phosphate buffer solution. An unlabeled highly concentrated solution of fluciclatide was added to selected slides in order to competitively bind to αvβ3 to assess for non-specific tracer uptake. A freshly blanked phosphor screen was then placed over the slides and an overnight exposure undertaken. The screen was read using a FujiFilm FLA-5100 Fluorescent Image Analyser (Raytek Scientific Limited, Sheffield, UK). Sections were then manually registered and examined for co-localization with histological markers of atherosclerotic disease

On the set-up of series [2]: species or system human. As to conditions: in vivo. The text has this: A total of 46 subjects underwent PET imaging with CT angiography (age 66±10 years, 74% male; table 1) following injection of 229 (IQR 217–237) […] 18F-fluciclatide. Of the 46 subjects recruited, 19 had suffered a recent MI (unstable cohort), and 27 had imaging evidence of aortic atherosclerosis on CT but no recent cardiovascular events (stable cohort: 6 with stable angina and 21 with subclinical disease who were asymptomatic with no prior cardiovascular events). […] The groups were well matched for gender (p=0.97) and body mass index (p=0.39), and were both characterised by high prevalence of atherosclerotic risk factors, with more smokers in the unstable group (p<0.001) and more patients with hypertension in the stable group (p=0.02).

In series [3] the target is αvβ3 integrin in thoracic aortic atheroma (Homo sapiens, UniProt P05106+P06756).
Description: as §1
Kinetic analysis was performed on the dynamic PET studies to investigate the pharmacodynamics of 18F-fluciclatide uptake within atheroma. […] In all patients, static electrocardiogram-gated PET images were reconstructed in diastole (40–70 min postinjection, 50%–75% of the R-R interval, Ultra-HD, 2 iterations, 21 subsets, zoom ×2, 200 pixels). […] PET images were fused with the attenuation correction CT, and regions of interest drawn around the thoracic aorta on serial axial slices just beyond the discernible adventitial border. Aortic uptake was assessed in three regions: the ascending thoracic aorta (from the level of mid-right pulmonary artery up to the last slice where the aorta maintained its circular cross-sectional appearance), the descending thoracic aorta (the region extending from the tip of the diaphragm up to the last circular slice) and the aortic arch (the region of the aorta connecting the ascending and descending aorta). Within these regions, mean and maximum tracer activities were measured using standard uptake values (SUV; the decay corrected tissue concentration of the tracer divided by the injected dose per body weight, kBq/mL) and corrected for mean radiotracer blood pool activity to provide a mean of the TBRmax (mean TBRmax).[5 19 20] […] In a substudy of 10 randomly selected subjects, images were assessed independently by two experienced observers and the interobserver reproducibility of 18F-fluciclatide SUV and TBR measurements assessed.
Continuous data were tested for normality visually and with the D’Agostino-Pearson omnibus test. Continuous data were presented as median (IQR) and compared using Pearson’s or Spearman’s correlation or Wilcoxon signed-rank test as appropriate.

Like-named read-outs stand apart in the source and are kept apart here.

T1 sequence (P06756 31-889 limits assumed): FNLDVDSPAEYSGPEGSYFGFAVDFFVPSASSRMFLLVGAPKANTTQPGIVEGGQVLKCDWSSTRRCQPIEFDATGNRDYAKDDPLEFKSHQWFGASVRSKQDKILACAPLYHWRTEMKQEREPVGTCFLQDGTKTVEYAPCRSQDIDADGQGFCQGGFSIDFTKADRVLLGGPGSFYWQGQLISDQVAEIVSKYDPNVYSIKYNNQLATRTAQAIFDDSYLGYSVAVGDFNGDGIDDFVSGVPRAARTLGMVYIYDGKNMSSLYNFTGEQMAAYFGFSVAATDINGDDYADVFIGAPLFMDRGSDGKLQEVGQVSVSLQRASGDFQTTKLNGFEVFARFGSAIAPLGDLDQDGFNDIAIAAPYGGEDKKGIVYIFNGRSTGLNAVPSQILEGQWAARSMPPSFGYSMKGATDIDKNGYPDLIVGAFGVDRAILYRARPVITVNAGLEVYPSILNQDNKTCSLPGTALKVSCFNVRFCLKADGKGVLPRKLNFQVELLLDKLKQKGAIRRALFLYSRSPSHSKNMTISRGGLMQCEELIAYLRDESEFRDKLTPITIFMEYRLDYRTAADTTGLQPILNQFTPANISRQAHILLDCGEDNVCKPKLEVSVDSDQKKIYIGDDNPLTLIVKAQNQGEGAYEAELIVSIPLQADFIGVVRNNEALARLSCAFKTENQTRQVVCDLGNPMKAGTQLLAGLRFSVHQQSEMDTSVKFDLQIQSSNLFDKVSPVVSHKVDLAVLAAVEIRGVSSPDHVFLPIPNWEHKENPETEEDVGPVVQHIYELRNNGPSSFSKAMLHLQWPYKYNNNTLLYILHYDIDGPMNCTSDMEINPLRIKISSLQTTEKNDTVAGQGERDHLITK
T1 sequence (P06756 891-1048 partner limits assumed): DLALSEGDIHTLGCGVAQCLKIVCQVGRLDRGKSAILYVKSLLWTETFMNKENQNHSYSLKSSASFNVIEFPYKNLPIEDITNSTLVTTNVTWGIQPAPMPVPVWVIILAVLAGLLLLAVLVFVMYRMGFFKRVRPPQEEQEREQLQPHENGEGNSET
T1 sequence (P05106 27-788): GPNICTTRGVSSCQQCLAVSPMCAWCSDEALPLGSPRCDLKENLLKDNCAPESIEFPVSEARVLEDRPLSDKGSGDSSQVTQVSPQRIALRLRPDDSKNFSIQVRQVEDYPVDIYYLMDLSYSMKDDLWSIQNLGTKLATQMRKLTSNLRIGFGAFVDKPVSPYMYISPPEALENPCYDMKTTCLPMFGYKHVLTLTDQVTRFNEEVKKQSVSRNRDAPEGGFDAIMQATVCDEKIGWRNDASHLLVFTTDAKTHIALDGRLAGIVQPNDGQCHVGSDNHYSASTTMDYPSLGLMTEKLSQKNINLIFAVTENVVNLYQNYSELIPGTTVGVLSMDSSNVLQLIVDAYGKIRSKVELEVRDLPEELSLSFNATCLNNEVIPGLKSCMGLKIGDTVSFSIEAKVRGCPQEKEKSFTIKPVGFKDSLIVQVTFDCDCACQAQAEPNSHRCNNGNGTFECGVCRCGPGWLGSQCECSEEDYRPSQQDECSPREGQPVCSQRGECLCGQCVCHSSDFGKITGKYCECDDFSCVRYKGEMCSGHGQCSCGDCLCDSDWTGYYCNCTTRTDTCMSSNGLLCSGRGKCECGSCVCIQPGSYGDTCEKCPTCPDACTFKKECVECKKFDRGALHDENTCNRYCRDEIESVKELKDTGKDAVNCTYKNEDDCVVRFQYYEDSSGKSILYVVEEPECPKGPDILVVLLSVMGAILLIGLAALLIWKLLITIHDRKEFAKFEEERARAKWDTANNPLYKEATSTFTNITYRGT
Sequence of αvβ3 integrin in thoracic aortic atheroma (P06756 31-889 limits assumed): as the sequence (P06756 31-889 limits assumed) above
Sequence of αvβ3 integrin in thoracic aortic atheroma (P06756 891-1048 partner limits assumed): as the sequence (P06756 891-1048 partner limits assumed) above
Sequence of αvβ3 integrin in thoracic aortic atheroma (P05106 27-788): as the sequence (P05106 27-788) above
Sequence of aortic atheroma (αvβ3 integrin) (P06756 31-889 limits assumed): as the sequence (P06756 31-889 limits assumed) above
Sequence of aortic atheroma (αvβ3 integrin) (P06756 891-1048 partner limits assumed): as the sequence (P06756 891-1048 partner limits assumed) above
Sequence of aortic atheroma (αvβ3 integrin) (P05106 27-788): as the sequence (P05106 27-788) above

On to 18F-fluciclatide, for which the “Nature of ligand-receptor binding by Patlak modelling” value in series [1] (2-tissue irreversible Patlak model, t* 20 min, over the selected acquisition time) is “irreversible ligand-receptor binding”. For the same substance, the “Blood pool clearance half-life” value in series [1] (human, in vivo, iv) is “about 10 min”. The “Time at which activity within aortic atheroma reaches plateau” value in series [1] (in vivo) fell in the range of 40 to 70 min. Besides, the “Non-specific binding on autoradiography” value at αvβ3 integrin receptors (carotid atheroma, ex vivo) is “no evidence of non-specific binding”. In addition, the “18F-fluciclatide uptake in regions of carotid endarterectomy specimen without visible atheroma” value on αvβ3 integrin receptors (ex vivo autoradiography, 1 kBq/mL, 60 min) was “did not demonstrate 18F-fluciclatide uptake”. The “18F-fluciclatide binding in carotid plaque on autoradiography” value at αvβ3 integrin receptors (ex vivo carotid sections bathed in 1 kBq/mL for 60 min, atheromatous regions) is given as “focal 18F-fluciclatide binding in regions of advanced atherosclerosis”. Also, in series [2], the “Adverse events following administration” value is “No adverse events were reported” and the “Average total radiation dose per participant” value was 15 mSv. Moreover, in series [3] (40–70 min postinjection), the “TBRmax range in aortic atheroma” value is on record as 1.08–1.68. For the same substance, in series [3] (All patients, median (IQR)), the “Total aortic uptake (mean TBRmax), current smokers” value stood at 1.32; the “Total aortic uptake (mean TBRmax), not current smokers” value is on record as 1.29 (1.19–1.39); the “Total aortic uptake (mean TBRmax), with established ischaemic heart disease” value is listed as 1.34 (1.22–1.42); the “Total aortic uptake (mean TBRmax), with hypercholesterolaemia” value is listed as 1.34 (1.21–1.42). Besides, in series [3] (All patients, median (IQR)), the “Total aortic uptake (mean TBRmax), with hypertension” value is recorded as 1.33 (1.19–1.39); the “Total aortic uptake (mean TBRmax), without diabetes mellitus” value is on record as 1.29 (1.19–1.38); the “Total aortic uptake (mean TBRmax), without established ischaemic heart disease” value is on record as 1.25 (1.19–1.35); the “Total aortic uptake (mean TBRmax), without hypercholesterolaemia” value was 1.27 (1.19–1.34). In addition, the “Total aortic uptake (mean TBRmax), without hypertension” value in series [3] (All patients, median (IQR)) was 1.29 (1.20–1.40). In series [3] (Stable cohort, median (IQR)), the “Total aortic uptake (mean TBRmax), with diabetes mellitus” value is reported as 1.37 (1.28–1.58); the “Total aortic uptake (mean TBRmax), with established ischaemic heart disease” value was 1.37 (1.37–1.42); the “Total aortic uptake (mean TBRmax), with hypercholesterolaemia” value is reported as 1.36; the “Total aortic uptake (mean TBRmax), with hypertension” value is 1.27 (1.21–1.38). In addition, in series [3] (Stable cohort, median (IQR)), the “Total aortic uptake (mean TBRmax), without diabetes mellitus” value was 1.29 (1.19–1.37) and the “Total aortic uptake (mean TBRmax), without hypertension” value is 1.33 (1.19–1.38). The “Aortic Arch (mean TBRmax)” value in series [3] (Unstable atherosclerosis (n=19, recent MI), median (IQR)) turned out to be 1.29. Further, the “TBRmax on standard analysis, subjects without visible uptake on Patlak analysis” value in series [3] (comparison p=0.08) was 1.19±0.03. For the same substance, in series [3] (n=7), the “TBRmax on standard analysis, subjects with uptake present on Patlak analysis” value amounted to 1.32±0.05.

In the case of fluciclatide [reference compound], at αvβ3 integrin receptors (un-labelled highly concentrated solution added to compete at αvβ3), the “Blocking of 18F-fluciclatide binding by un-labelled fluciclatide” value was “effectively blocked”.
